Measured values as given in US8916702B2 (priority 2012, dated 2014).
Read-outs that look alike come from different tables or passages of the source.

Tested on: HCV pseudoparticles (genotype 1a HCV E1 and E2 envelope, H77C isolate)
Assay: microbe, parasite or virus in culture
Format: cell-based
Conditions: Hepatitis C virus
[1] = Huh-7, 48 h, read-out: Activity (EC50 class), HCV pseudoparticle infection of Huh7 cells, luciferase 2 days after infection, EC50 expressed as class A/B
[2] = Huh-7, read-out: Activity (EC50 class), HCV pseudoparticles (genotype 1a, H77C) in Huh7 cells, EC50 expressed as class A/B
[3] = Huh-7, 48 h, HCV pseudoparticle infection of Huh7 cells, luciferase 2 days after infection, average of duplicates
[4] = Huh-7, 48 h, HCV pseudoparticles (genotype 1a, H77C) in Huh7 cells, average of duplicate, luciferase 2 days after infection
[5] = Huh-7, 48 h, read-out: Activity (EC50 class), HCV pseudoparticles, Huh7 cells, luciferase 2 days after infection, average of duplicates
[6] = Huh-7, 48 h, HCV pseudoparticles, Huh7 cells, luciferase 2 days after infection, average of duplicates

Row | Structure (SMILES) | EC50 [1] [nM] | EC50 [2] [nM] | other results
1 | CNC(=O)C(=O)NCC(C)(C)CNC(=O)c1ccc(Nc2nc(NC3(c4ccc(Cl)cc4)CC3)nc(OCC(F)(F)F)n2)cc1 [Compound 1553] | 0.01 to 10 | – | –
2 | COC(=O)[C@H](CNC(=O)C(=O)Nc1ccc(-c2nncn2C)cc1)NC(=O)c1ccc(Nc2nc(NC3(c4ccc(Cl)cc4)CC3)nc(OCC(F)(F)F)n2)cc1 [Compound 3200] | – | 0.01 to 10 | –
3 | COC(=O)[C@H](CCNC(=O)C(=O)Nc1ccc(N2CCN(Cc3ccccc3)CC2)cc1)NC(=O)c1ccc(Nc2nc(NC3(c4ccc(Cl)cc4)CC3)nc(OCC(F)(F)F)n2)cc1 [Compound 3131] | – | 0.01 to 10 | –
4 | COC(=O)[C@H](CNC(=O)C(=O)NCCc1ccccc1OC)NC(=O)c1ccc(Nc2nc(NC3(c4ccc(Cl)cc4)CC3)nc(OCC(F)(F)F)n2)cc1 [Compound 1285] | 0.01 to 10 | – | –
5 | O=C(NCC[C@H](NC(=O)c1ccc(Nc2nc(NC3(c4ccc(Cl)cc4)CC3)nc(OCC(F)(F)F)n2)cc1)C(=O)O)C(=O)Nc1cc(F)c(F)cc1F [Compound 1514] | 0.01 to 10 | – | EC50 [3]: 0.04 nM
6 | Cn1cc(NC(=O)C(=O)NCC(C)(C)CNC(=O)c2ccc(Nc3nc(NC4(c5ccc(Cl)cc5)CC4)nc(OCC(F)(F)F)n3)cc2)cn1 [Compound 3176] | – | 0.01 to 10 | –
7 | CC(C)(CNC(=O)C(=O)Nc1cccc(CC(=O)O)c1)CNC(=O)c1ccc(Nc2nc(NC3(c4ccc(Cl)cc4)CC3)nc(OCC(F)(F)F)n2)cc1 [Compound 1480] | 0.01 to 10 | – | –
8 | Cc1ccc(CNC(=O)C(=O)NCC[C@H](NC(=O)c2ccc(Nc3nc(NC4(c5ccc(Cl)cc5)CC4)nc(OCC(F)(F)F)n3)cc2)C(=O)O)cc1 [Compound 1185] | 0.01 to 10 | – | –
9 | CC(C)(CNC(=O)C(=O)NCc1ccc(F)cc1)CNC(=O)c1ccc(Nc2nc(NC3(c4ccc(Cl)cc4)CC3)nc(OCC(F)(F)F)n2)cc1 [Compound 1549] | 0.01 to 10 | – | –
10 | COC(=O)[C@H](CNC(=O)C(=O)NCCc1c[nH]cn1)NC(=O)c1ccc(Nc2nc(NC3(c4ccc(Cl)cc4)CC3)nc(OCC(F)(F)F)n2)cc1 [Compound 1295] | 10 to 1000 | – | –
11 | CC(C)(CNC(=O)C(=O)Nc1nc2c(s1)CCCC2)CNC(=O)c1ccc(Nc2nc(NC3(c4ccc(Cl)cc4)CC3)nc(OCC(F)(F)F)n2)cc1 [Compound 3350] | – | 0.01 to 10 | –
12 | CC(C)(CNC(=O)C(=O)Nc1ccc2c(c1)CCCC2=O)CNC(=O)c1ccc(Nc2nc(NC3(c4ccc(Cl)cc4)CC3)nc(OCC(F)(F)F)n2)cc1 [Compound 3263] | – | 0.01 to 10 | –
13 | COC(=O)[C@H](CCNC(=O)C(=O)Nc1ccc(-n2ccnc2C)cc1)NC(=O)c1ccc(Nc2nc(NC3(c4ccc(Cl)cc4)CC3)nc(OCC(F)(F)F)n2)cc1 [Compound 3320] | – | 0.01 to 10 | EC50 [4]: 8.8 nM
14 | O=C(NCC[C@H](NC(=O)c1ccc(Nc2nc(NC3(c4ccc(Cl)cc4)CC3)nc(OCC(F)(F)F)n2)cc1)C(=O)O)C(=O)Nc1ccc(N2CCCC2)nc1 [Compound 3645] | – | – | EC50 [5]: 0.01 to 10 nM
15 | COC(=O)[C@H](CCNC(=O)C(=O)Nc1ccc(-c2cc[nH]n2)cc1)NC(=O)c1ccc(Nc2nc(NC3(c4ccc(Cl)cc4)CC3)nc(OCC(F)(F)F)n2)cc1 [Compound 3310] | – | 0.01 to 10 | EC50 [4]: 2.15 nM
16 | C=Cc1ccccc1NC(=O)C(=O)NCC(C)(C)CNC(=O)c1ccc(Nc2nc(NC3(c4ccc(Cl)cc4)CC3)nc(OCC(F)(F)F)n2)cc1 [Compound 3362] | – | 0.01 to 10 | –
17 | CC1(C)[C@H]2C[C@@]1(C)CCC2CNC(=O)C(=O)NCC[C@H](NC(=O)c1ccc(Nc2nc(NC3(c4ccc(Cl)cc4)CC3)nc(OCC(F)(F)F)n2)cc1)C(=O)O (stereo partly shown) [Compound 1211] | 0.01 to 10 | – | EC50 [3]: 0.13 nM
18 | CC(C)(CNC(=O)C(=O)NCc1ccc(F)cc1)CNC(=O)c1ccc(Nc2nc(NC3(c4ccc(Cl)cc4)CC3)nc(OCC(F)(F)F)n2)cc1F [Compound 3514] | – | 0.01 to 10 | –
19 | O=C(NC[C@H](NC(=O)c1ccc(Nc2nc(NC3(c4ccc(Cl)cc4)CC3)nc(OCC(F)(F)F)n2)cc1)C(=O)O)C(=O)Nc1cccc(-c2ccccc2)c1 [Compound 3751] | – | – | EC50 [6]: 0.14 nM; EC50 [5]: 0.01 to 10 nM
20 | COCc1ccc(NC(=O)C(=O)NC[C@H](NC(=O)c2ccc(Nc3nc(NC4(c5ccc(Cl)cc5)CC4)nc(OCC(F)(F)F)n3)cc2)C(=O)OC)cc1 [Compound 3205] | – | 0.01 to 10 | –
21 | COC(=O)[C@H](CNC(=O)C(=O)NC1CCCCC1)NC(=O)c1ccc(Nc2nc(NC3(c4ccc(Cl)cc4)CC3)nc(OCC(F)(F)F)n2)cc1 [Compound 1132] | 0.01 to 10 | – | –
22 | Cc1ccc(NC(=O)C(=O)NCC[C@H](NC(=O)c2ccc(Nc3nc(NC4(c5ccc(Cl)cc5)CC4)nc(OCC(F)(F)F)n3)cc2)C(=O)O)cn1 [Compound 3636] | – | – | EC50 [5]: 0.01 to 10 nM
23 | COC(=O)[C@H](CNC(=O)C(=O)Nc1cccc(-c2noc(C)n2)c1)NC(=O)c1ccc(Nc2nc(NC3(c4ccc(Cl)cc4)CC3)nc(OCC(F)(F)F)n2)cc1 [Compound 3730] | – | – | EC50 [6]: 0.6 nM; EC50 [5]: 0.01 to 10 nM
24 | CC(C)(CNC(=O)c1ccc(Nc2nc(NC3(c4ccc(Cl)cc4)CC3)nc(OCC(F)(F)F)n2)cc1)NC(=O)C(=O)Nc1cc(F)cc(F)c1 [Compound 3424] | – | 0.01 to 10 | –

Row | Structure (SMILES) | EC50 [1] [nM] | EC50 [2] [nM] | other results
25 | O=C(NC[C@H](NC(=O)c1ccc(Nc2nc(NC3(c4ccc(Cl)cc4)CC3)nc(OCC(F)(F)F)n2)cc1)C(=O)Cl)C(=O)Nc1cccc(C(=O)Nc2ccccc2)c1 [Compound 3747] | – | – | EC50 [5]: 0.01 to 10 nM
26 | CC(C)(CNC(=O)C(=O)Nc1ccc(-c2csnn2)cc1)CNC(=O)c1ccc(Nc2nc(NC3(c4ccc(Cl)cc4)CC3)nc(OCC(F)(F)F)n2)cc1 [Compound 1598] | 0.01 to 10 | – | –
27 | COC(=O)[C@H](CNC(=O)C(=O)Nc1cncn1C)NC(=O)c1ccc(Nc2nc(NC3(c4ccc(Cl)cc4)CC3)nc(OCC(F)(F)F)n2)cc1 [Compound 1247] | 0.01 to 10 | – | –
28 | O=C(NCC[C@H](NC(=O)c1ccc(Nc2nc(NC3(c4ccc(Cl)cc4)CC3)nc(OCC(F)(F)F)n2)cc1)C(=O)O)C(=O)NCC1CCCCC1 [Compound 1181] | 0.01 to 10 | – | –
29 | COc1ccc(NC(=O)C(=O)NC[C@H](NC(=O)c2ccc(Nc3nc(NC4(c5ccc(Cl)cc5)CC4)nc(OCC(F)(F)F)n3)cc2)C(=O)O)cn1 [Compound 1349] | 0.01 to 10 | – | –
30 | Cn1nccc1NC(=O)C(=O)NCC(C)(C)CNC(=O)c1ccc(Nc2nc(NC3(c4ccc(Cl)cc4)CC3)nc(OCC(F)(F)F)n2)cc1 [Compound 3036] | – | 0.01 to 10 | –
31 | CC(C)(CNC(=O)C(=O)Nc1nc2c(Cl)cccc2s1)CNC(=O)c1ccc(Nc2nc(NC3(c4ccc(Cl)cc4)CC3)nc(OCC(F)(F)F)n2)cc1 [Compound 3815] | – | – | EC50 [5]: 0.01 to 10 nM
32 | CCOc1ccc(NC(=O)C(=O)NC[C@H](NC(=O)c2ccc(Nc3nc(NC4(c5ccc(Cl)cc5)CC4)nc(OCC(F)(F)F)n3)cc2)C(=O)OC)cc1 [Compound 3210] | – | 0.01 to 10 | EC50 [4]: 0.75 nM
33 | O=C(NC[C@H](NC(=O)c1ccc(Nc2nc(NC3(c4ccc(Cl)cc4)CC3)nc(OCC(F)(F)F)n2)cc1)C(=O)O)C(=O)Nc1cccnc1 [Compound 1367] | 0.01 to 10 | – | –
34 | O=C(NC1CCCCC1)C(=O)N1CCCC(CNC(=O)c2ccc(Nc3nc(NC4(c5ccc(Cl)cc5)CC4)nc(OCC(F)(F)F)n3)cc2)C1 (stereo not shown) [Compound 3489] | – | 0.01 to 10 | –
35 | Cc1cc(NC(=O)C(=O)N2CCCC(CNC(=O)c3ccc(Nc4nc(NC5(c6ccc(Cl)cc6)CC5)nc(OCC(F)(F)F)n4)cc3)C2)no1 (stereo not shown) [Compound 3486] | – | 0.01 to 10 | EC50 [4]: 0.32 nM
36 | CC(=O)c1ccccc1NC(=O)C(=O)NCC(C)(C)CNC(=O)c1ccc(Nc2nc(NC3(c4ccc(Cl)cc4)CC3)nc(OCC(F)(F)F)n2)cc1 [Compound 3377] | – | 0.01 to 10 | –
37 | CC(=O)c1cccc(NC(=O)C(=O)NCC(C)(C)CNC(=O)c2ccc(Nc3nc(NC4(c5ccc(Cl)cc5)CC4)nc(OCC(F)(F)F)n3)cc2)c1 [Compound 3668] | – | – | EC50 [5]: 0.01 to 10 nM
38 | Cn1cc(NC(=O)C(=O)NCC[C@H](NC(=O)c2ccc(Nc3nc(NC4(c5ccc(Cl)cc5)CC4)nc(OCC(F)(F)F)n3)cc2)C(=O)O)cn1 [Compound 1268] | 0.01 to 10 | – | –
39 | COC(=O)[C@H](CNC(=O)C(=O)NCc1ccc(F)c(F)c1)NC(=O)c1ccc(Nc2nc(NC3(c4ccc(Cl)cc4)CC3)nc(OCC(F)(F)F)n2)cc1 [Compound 1136] | 0.01 to 10 | – | –
40 | COC(=O)[C@H](CCNC(=O)C(=O)NCC1CCc2ccccc21)NC(=O)c1ccc(Nc2nc(NC3(c4ccc(Cl)cc4)CC3)nc(OCC(F)(F)F)n2)cc1 (stereo partly shown) [Compound 1324] | 0.01 to 10 | – | –
41 | Cn1cncc1NC(=O)C(=O)NCC[C@H](NC(=O)c1ccc(Nc2nc(NC3(c4ccc(Cl)cc4)CC3)nc(OCC(F)(F)F)n2)cc1)C(=O)O [Compound 1267] | 0.01 to 10 | – | EC50 [3]: 5.26 nM
42 | COC(=O)[C@H](CNC(=O)C(=O)Nc1ccc(OC)cc1)NC(=O)c1ccc(Nc2nc(NC3(c4ccc(Cl)cc4)CC3)nc(OCC(F)(F)F)n2)cc1 [Compound 1254] | 0.01 to 10 | – | EC50 [3]: 0.37 nM
43 | COC(=O)/C(CCNC(=O)C(=O)Nc1ccc(-n2nc(C)cc2C)cc1)=N\C(=O)c1ccc(Nc2nc(NC3(c4ccc(Cl)cc4)CC3)nc(OCC(F)(F)F)n2)cc1 [Compound 3137] | – | 0.01 to 10 | –
44 | O=C(NCC[C@H](NC(=O)c1ccc(Nc2nc(NC3(c4ccc(Cl)cc4)CC3)nc(OCC(F)(F)F)n2)cc1)C(=O)O)C(=O)NC1Cc2ccccc2C1 [Compound 1335] | 0.01 to 10 | – | –
45 | CN(CCCNC(=O)c1ccc(Nc2nc(NC3(c4ccc(Cl)cc4)CC3)nc(OCC(F)(F)F)n2)cc1)C(=O)C(=O)Nc1ccccc1 [Compound 3450] | – | 0.01 to 10 | –
46 | O=C(NCC[C@H](NC(=O)c1ccc(Nc2nc(NC3(c4ccc(Cl)cc4)CC3)nc(OCC(F)(F)F)n2)cc1)C(=O)O)C(=O)NCC1CC1(Cl)Cl (stereo partly shown) [Compound 1445] | 0.01 to 10 | – | –
47 | COC(=O)[C@H](CNC(=O)C(=O)Nc1ccccc1OC)NC(=O)c1ccc(Nc2nc(NC3(c4ccc(Cl)cc4)CC3)nc(OCC(F)(F)F)n2)cc1 [Compound 1256] | 0.01 to 10 | – | EC50 [3]: 0.64 nM
